How the values were obtained:
[1] = tested on: neointimal formation in balloon-injured rat carotid artery; experiment: Rat carotid catheter (balloon) injury model of restenosis; format: in vivo; details: Example 2; 1.5 and 15 mg/kg day -1 and/or day +6; 14 days post injury; FIG. 4
Procedure: Animals were obtained and housed in the animal facilities of the Faculty of Medicine, The Hebrew University of Jerusalem, conforming to the standards for care and use of laboratory animals of the Hebrew University of Jerusalem. Male rats of Sabra strain weighing 350-420 g were used. The animals were fed standard laboratory chow and tap water ad libitum. All in vivo experiments were conducted under general anaesthesia achieved with 80 mg/kg ketamine and 5 mg/kg xylazine administered IP.
The distal left common and external carotid arteries were exposed through a midline incision in the neck. […]
The slides were examined microscopically by an investigator blinded to the type of the experimental group. Six to eight sections in each slide were evaluated by computerized morphometric analysis and the averaged section data were further used as a representative of a whole slide for comparisons between groups. The residual lumen, the area bounded by the internal elastic lamina (original lumen), and the area circumscribed by the external elastic lamina (“total arterial area”) were measured directly. The degree of neointimal thickening was expressed as the ratio between the area of the neointimal and the original lumen (% stenosis), and as the ratio between the neointimal area to the area of the media (N/M). […]

RAW 264 cells = experiment: Growth/proliferation of RAW 264 cells in vitro; format: cell-based, murine; details: FIG. 6; 48 hours after treatment; proliferation in buffer = 100%
Procedure: The effect of ISA on the growth of RAW 264 cells was determined. RAW 264 cells, which are derived from the murine macrophage cell lines, were plated at 2×10^4 cells per well in 24-well plates and allowed to grow for approximately 24 hours in DMEM. The cells were then treated with various compositions of the ISA drug, specifically, free ISA, the ISA−Ca^+2 salt, and ISA encapsulated in a nanoparticle (“ISA NP”). As discussed supra, the ISA NP contains Ca^+2 to lower the solubility of the bisphosphonate and increase its entrapment efficiency. For comparison purposes, the RAW 264 cells were also treated with blank NP, i.e., nanoparticles with no drug embedded therein. The cells were then analyzed 48 hours after treatment. Analysis included cell counting by Coulter counter and cell viability by tryphan blue exclusion assay.
The effect of ISA compositions on the growth of RAW 264 cells in vitro is illustrated in FIG. 6. The cell proliferation in buffer only was termed as 100%. The data represented is the mean with a ±SD (6≦N≦27).
The following formulations were evaluated: Ca^+2-ISA salt, Ca^+2-ISA salt+PVA, and Ca^+2-ISA adsorbed on the surface of a blank NP. The cell proliferation in the buffer only was termed as 100%. N.B., a lower column represents higher potency.

| SMILES | mean neointimal formation [1] | growth of RAW 264 cells (RAW 264 cells) |
| --- | --- | --- |
| O=P(O)(O)C(Cl)(Cl)P(=O)(O)O [free clodronate in solution, (dichloromethylene) diphosphonic acid] | marked neointimal formation |  |
| Nc1nccc[n+]1CC(P(=O)([O-])O)P(=O)(O)O (centres unmarked) [free ISA, 2-(2-aminopyrimidinio) ethylidene-1,1-bisphosphonic acid betaine] |  | only a minor effect |
